# In PMC8281026, “Peptide Based Inhibitors of Protein Binding to the Mitogen-Activated Protein Kinase Docking Groove” (Frontiers in Molecular Biosciences, 2021):
# What was measured:
# [1] = system: HEK-293T cells; assay: Intracellular distribution by confocal laser scanning microscopy; type: cell-based; conditions: 10 and 20 µM, 3 h
# Protocol: (§1) The cellular uptake of the fluorescent labeled peptide into HEK-293T cells were analyzed by fluorescence microscopy (Cytation 3, BioTek Instruments) and two peptides were further examined by confocal laser scanning microscopy (Zeiss LSM-710 system). Cells were incubated with peptides in serum-free medium (DMEM) for 3 h at 37 °C and then washed twice with 200 μl of serum-free medium before analyzing.
# [2] = system: HL-60 cells; assay: Cellular uptake by flow cytometry; type: cell-based, human; conditions: for fluorescence intensity relative to peptide 9: 90 min, HL-60, flow cytometry, trypsin treated
# Protocol: (§2) To study the cellular uptake of fluorescent labeled peptides and conjugate by flow cytometry, 10^5 HL-60 cells per well were plated on 24-well plates and were incubated for 24 h at 37°C. Then cells were treated with the solution of compounds in serum-free media for 90 min. The cellular uptake was analysed at 1, 5 and 10 µM concentrations. Cells treated with serum-free media were the control. At the end of incubation, treatment solutions were removed, and the cells were treated with 100 μL trypsin for 2 min to remove the membrane proteins in order to eliminate non-specific binding of conjugates. The effect of trypsin was terminated by 900 μL HPMI containing 10% fetal calf serum, and the cell suspensions were transferred into FACS-tubes. After centrifugation at 216g at 4°C for 5 min the supernatant was removed. Then cells were resuspended in 500 µl HPMI, and the intracellular fluorescence intensity of HL-60 cells was monitored (on channel FITC LP505; emission at λ = 505 nm; LP 505, BP 530/30) by flow cytometry (BD LSR II, BD Bioscience, San Jose, CA, equipped with 488 nm; Coherent Sapphire, 22 mW laser.) which is proportional to the cellular uptake. Data were analysed with FACSDiVa 5.0 software. Statistical analysis was done using two-sided independent Student’s t-test.
# [3] = system: HEK-293T cells; assay: Cellular uptake by fluorescence microscopy; type: cell-based; conditions: fluorescence microscopy
# Protocol: as §1
# [4] = system: HL-60 cells; assay: Percent of live cells by flow cytometry; type: cell-based, human; conditions: 10 µM, 90 min, serum-free media, HL-60, three independent measurements
# Protocol: as §2
# [5] = system: ERK1/2 phosphorylation in HEK-293T cells; assay: ERK phosphorylation level in cells by Western-blot after EGF stimulation; type: cell-based; conditions: pre-treated 20 μM, 5 h, EGF 100 ng/ml
# Protocol: To study the effect of peptides on the ERK pathway EGF stimulation and Western-blot analysis were used. HEK-293T cells were plated on 48-well plate and were serum-starved for overnight. Then cells were treated with the Cf-peptide at 20µM for 5 h in 100 μL DMEM and then stimulated by addition of EGF (Sigma, E9644) in 100 ng/mL concentration. Stimulation was terminated at different time points by adding 35 μL 4× SDS loading buffer. Cells were lysed and 10 μL of each sample was subjected to SDS-PAGE. […] The intensities of the protein bands were determined by densitometry and monitored after the stimulation in time. […] Activated (i.e., phosphorylated) ERK and p38 were detected by phospho-p44/42 MAPK (ERK1/2) (see above) and phospho-p38 MAPK (Thr180/Tyr182) rabbit primary antibody (Cell Signaling, #9215) in 1:2000 dilution, respectively. The total ERK and p38 content of the samples were determined by anti-p44/42 MAPK (ERK1/2) mouse primary antibody and anti-p38α MAPK mouse mAb (Cell Signaling, #9228), respectively. […] As secondary antibody anti-rabbit antibody (IRDye® 800CW Goat anti-Rabbit IgG, #926-32211) in 1:5,000 and secondary anti-mouse antibody (IRDye® 680CW Goat anti-Mouse IgG, #926-68070 in 1: 10,000 were used. Protein bands were detected and quantified with LI-COR Odyssey® Clx infrared imaging system. Statistical analysis was done using two-sided independent Student’s t-test.
Substance,intracellular distribution [1],fluorescence intensity relative to peptide 9 ([2]; 1 µM) [times],fluorescence intensity relative to peptide 9 ([2]; 5 µM) [times],fluorescence intensity relative to peptide 9 ([2]; 10 µM) [times],internalization compared to the peptide without the Dabcyl-group ([2]; at different concentrations),"internalization into HEK-293T cells ([3]; serum-free medium, 37 °C, up to 3 h, Figure 1)",number of live cells [4] [%],"internalization of the conjugate into HEK-293T cells ([3]; after 5 h of treatment at 5 µM (Figure 4 legend: 20 μM, 5 h))",amount of phosphorylated ERK [5]
Dabcyl-RRRPPWLRLDIRRK(Cf)-NH 2 [compound 11],more diffuse distribution,9.2,23.5,16.9,10–24 times,increased the peptide internalization,40,–,–
"Cf-SLQRKKPPWLKLDIPSC(CH2-CO-RRRRRRRR-NH2)-NH2 [compound 3, Cf-labeled octaarginine conjugate]",–,–,–,–,–,–,–,showed internalization,some reduction
